Experimental data published in PubChem BioAssay AID270 (DTP/NCI, 2004).
“And” between values parts separate entries of the source, which are not always exact repeats. Equal entries are not always repeated. Results filed as inconclusive are left out.

System: BDF1 mice, s.c. Lewis lung carcinoma, T/C %
Assay: NCI In Vivo Anticancer Drug Screen. Data for tumor model Lewis Lung Carcinoma (subcutaneous) in B6D2F1 (BDF1) mice
Summary of the method: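 First, mice carry a transplantable tumor. Next, groups receive either compound or vehicle. Finally, survival or tumor dimensions in the dosed animals are divided by the corresponding control figure.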

[1] = endpoint: median survival time, dose: 2.5 mg/kg/injection, schedule: Q01DX009 (ip), vehicle: Klucel (hydroxypropylcellulose) (HPC), higher = longer survival
[2] = endpoint: median survival time, dose: 5.0 mg/kg/injection, schedule: Q01DX009 (ip), vehicle: Klucel (hydroxypropylcellulose) (HPC), higher = longer survival

CN1CCCC1
T/C (endpoint: mean tumor weight, dose: 44.0 mg/kg/injection, schedule: Q01DX011 (ip), vehicle: carboxymethylcellulose (CMC), higher = larger tumour): 52 % of control | T/C (endpoint: mean tumor weight, dose: 66.0 mg/kg/injection, schedule: Q01DX011 (ip), vehicle: carboxymethylcellulose (CMC), higher = larger tumour): 58 % of control | T/C (endpoint: mean tumor weight, dose: 100.0 mg/kg/injection, schedule: Q01DX011 (ip), vehicle: carboxymethylcellulose (CMC), higher = larger tumour): 69 % of control | T/C (endpoint: mean tumor weight, dose: 150.0 mg/kg/injection, schedule: Q01DX011 (ip), vehicle: carboxymethylcellulose (CMC), higher = larger tumour): 109 % of control

C=C1C(C)C2C(Cc3ccccc3)NC(=O)C23C(OC(C)=O)C=CC(C)(O)C(=O)C(C)C/C=C/C3C1O (stereo not drawn)
T/C (endpoint: median survival time, dose: 0.31 mg/kg/injection, schedule: Q01DX009 (ip), vehicle: Klucel (hydroxypropylcellulose) (HPC), higher = longer survival): 121 % of control | T/C (endpoint: median survival time, dose: 0.62 mg/kg/injection, schedule: Q01DX009 (ip), vehicle: Klucel (hydroxypropylcellulose) (HPC), higher = longer survival): 124 % of control | T/C (endpoint: median survival time, dose: 1.25 mg/kg/injection, schedule: Q01DX009 (ip), vehicle: Klucel (hydroxypropylcellulose) (HPC), higher = longer survival): 110 % of control | T/C [1]: 118 % of control | T/C [2]: 109 % of control

O=C(O)c1c2c(nc3ccccc13)Cc1ccccc1-2
T/C (endpoint: median survival time, dose: 50.0 mg/kg/injection, schedule: Q01DX009 (ip), vehicle: Klucel (hydroxypropylcellulose) (HPC), higher = longer survival): 99 % of control | T/C (endpoint: median survival time, dose: 100.0 mg/kg/injection, schedule: Q01DX009 (ip), vehicle: Klucel (hydroxypropylcellulose) (HPC), higher = longer survival): 109 % of control | T/C (endpoint: median survival time, dose: 200.0 mg/kg/injection, schedule: Q01DX009 (ip), vehicle: Klucel (hydroxypropylcellulose) (HPC), higher = longer survival): 109 % of control

Nc1cc2nc3ccccc3sc-2cc1=O
T/C (endpoint: median survival time, dose: 50.0 mg/kg/injection, schedule: Q01DX009 (ip), vehicle: saline with Tween-80, higher = longer survival): 104 % of control | T/C (endpoint: median survival time, dose: 100.0 mg/kg/injection, schedule: Q01DX009 (ip), vehicle: saline with Tween-80, higher = longer survival): 90 % of control

Nc1ccc(Cl)c(N)c1
T/C (endpoint: mean tumor weight, dose: 22.0 mg/kg/injection, schedule: Q01DX011 (ip), vehicle: saline, higher = larger tumour): 115 % of control | T/C (endpoint: mean tumor weight, dose: 33.0 mg/kg/injection, schedule: Q01DX011 (ip), vehicle: saline, higher = larger tumour): 117 % of control | T/C (endpoint: mean tumor weight, dose: 50.0 mg/kg/injection, schedule: Q01DX011 (ip), vehicle: saline, higher = larger tumour): 105 % of control

COc1cc2c(c(OC)c1OC)-c1cc3c(cc1[C@@H](OC(C)=O)[C@@H]1COC(=O)[C@H]1C2)OCO3
T/C [1]: 94 % of control | T/C [2]: 97 % of control | T/C (endpoint: median survival time, dose: 10.0 mg/kg/injection, schedule: Q01DX009 (ip), vehicle: Klucel (hydroxypropylcellulose) (HPC), higher = longer survival): 95 % of control

O=NN(CCCl)C(=O)NC1CCC(CC2CCC(NC(=O)N(CCCl)N=O)CC2)CC1 (stereo not drawn)
T/C (endpoint: median tumor weight (est.), dose: 46.0 mg/kg/injection, schedule: Q01DX001 (ip), vehicle: gum acacia, higher = larger tumour): 80 % of control | T/C (endpoint: median tumor weight (est.), dose: 93.0 mg/kg/injection, schedule: Q01DX001 (ip), vehicle: gum acacia, higher = larger tumour): 76 % of control | T/C (endpoint: median tumor weight (est.), dose: 187.0 mg/kg/injection, schedule: Q01DX001 (ip), vehicle: gum acacia, higher = larger tumour): 55 % of control | T/C (endpoint: median tumor weight (est.), dose: 250.0 mg/kg/injection, schedule: Q01DX001 (ip), vehicle: gum acacia, higher = larger tumour): 10 % of control | T/C (endpoint: median tumor weight (est.), dose: 375.0 mg/kg/injection, schedule: Q01DX001 (ip), vehicle: gum acacia, higher = larger tumour): 3 % of control

C/C=C(\C)C(=O)N/N=C\c1cc(Cl)cc(Cl)c1O
T/C (endpoint: median survival time, dose: 12.5 mg/kg/injection, schedule: Q01DX009 (ip), vehicle: olive oil, sesame oil, peanut oil, higher = longer survival): 102 % of control | T/C (endpoint: median survival time, dose: 25.0 mg/kg/injection, schedule: Q01DX009 (ip), vehicle: olive oil, sesame oil, peanut oil, higher = longer survival): 112 % of control | T/C (endpoint: median survival time, dose: 50.0 mg/kg/injection, schedule: Q01DX009 (ip), vehicle: olive oil, sesame oil, peanut oil, higher = longer survival): 90 % of control | T/C (endpoint: median survival time, dose: 200.0 mg/kg/injection, schedule: Q01DX009 (ip), vehicle: olive oil, sesame oil, peanut oil, higher = longer survival): 86 % of control

Clc1[nH]nc2ccccc12
T/C (endpoint: mean tumor weight, dose: 125.0 mg/kg/injection, schedule: Q01DX011 (ip), vehicle: saline, higher = larger tumour): 80 % of control and 85 % of control | T/C (endpoint: mean tumor weight, dose: 250.0 mg/kg/injection, schedule: Q01DX011 (ip), vehicle: saline, higher = larger tumour): 45 % of control and 67 % of control

CC1=C(/C=C/C(C)=C/C=C/C(C)=C/C=O)C(C)(C)CCC1
T/C (endpoint: median survival time, dose: 16.0 mg/kg/injection, schedule: Q01DX005 (ip), vehicle: DMSO, higher = longer survival): 153 % of control | T/C (endpoint: median survival time, dose: 32.0 mg/kg/injection, schedule: Q01DX005 (ip), vehicle: DMSO, higher = longer survival): 151 % of control
